The values below come from US11247981B2, “Metalloenzyme inhibitor compounds” (Mycovia Pharmaceuticals, Inc., priority 2012, dated 2022).

SMILES strings stand for the structures. Converted amounts (≈) assume the structure as drawn.

The subject of the first assay is C. albicans. Description: Minimum Inhibitory Concentration (MIC), CLSI M27-A2. Type of assay: cell-based. The settings on record: Candida albicans, rating scale in μg/mL. Here is the method:
A. Minimum Inhibitory Concentration (MIC) Compounds were assessed for their ability to inhibit the growth of common strains of fungus, C. albicans using a standardized procedure (CLSI M27-A2). Stock solutions of the test compounds and standards were prepared in DMSO at 1,600 μg/mL (C. albicans). Eleven, serial, one-half dilutions of compounds were prepared in 96-well plates in RPMI+MOPS. The assay concentration ranges were 8-0.001 μg/mL (C. albicans). Cell suspensions of C. albicans were prepared and added to each well at concentrations of approximately 3.7×10^3 colony-forming-units per milliliter (cfu/mL). All testing was in duplicate. The inoculated plates were incubated for approximately 48 h at 35±1° C. At the completion of incubation the wells of each plate were evaluated visually for the presence of fungal growth. […] For QC purposes C. krusei isolate ATCC 6258 (4.0×10^3 cfu/mL) was included in the VOR assay.
One may read the MIC as the smallest concentration in the dilution series that meets the test's criterion for growth inhibition. Read a high MIC as weaker potency. For `CC(F)(c1ccc(-c2ccc(F)cc2)cn1)C(O)(Cn1cnnn1)c1ccc(F)cc1F` (centres unmarked) [Example 50, 2-(2,4-Difluorophenyl)-3-fluoro-3-(5-(4-fluorophenyl)pyridin-2-yl)-1-(1H-tetrazol-1-yl)butan-2-ol], the MIC fell in the range of 1.5 to 4 µg/mL (≈ 3.38 to 9.02 µM).

The same assay, now with this note: rating scale in μg/mL.
For the molecule `OC(Cn1cnnn1)(c1ccc(F)cc1F)C(F)(F)c1ccc(-c2ccc(OCC(F)(F)F)cc2)cn1` (centres unmarked) [Example 11, 2-(2,4-Difluorophenyl)-1,1-difluoro-3-(1H-tetrazol-1-yl)-1-(5-(4-(2,2,2-trifluoroethoxy)phenyl)pyridin-2-yl)propan-2-ol], the “Candida MIC Rating” value is given as “A (≤0.5)”.

In the case of `OC(Cn1cnnn1)(c1ccc(F)cc1F)C(F)(F)c1ccc(-c2ccc(OCC(F)(F)F)cc2)cn1` (centres unmarked) [Example 39, 2-(2,4-Difluorophenyl)-1,1-difluoro-3-(1H-tetrazol-1-yl)-1-(5-(4-(2,2,2-trifluoroethoxy)phenyl)pyridin-2-yl)propan-2-ol], the “Candida MIC Rating” value is “C (>1.5 − 4)”.

As for `CC(F)(c1ccc(-c2ccc(OC(F)(F)F)cc2)cn1)C(O)(Cn1cnnn1)c1ccc(F)cc1F` (centres unmarked) [Example 47, 2-(2,4-Difluorophenyl)-3-fluoro-1-(1H-tetrazol-1-yl)-3-(5-(4-(trifluoromethoxy)phenyl)-pyridin-2-yl)butan-2-ol], the “Candida MIC Rating” value is recorded as “A (≤0.5)”.

With `CC(F)(c1ccc(-c2ccc(F)cc2)cn1)C(O)(Cn1cnnn1)c1ccc(F)cc1F` (centres unmarked) [Example 51, 2-(2,4-Difluorophenyl)-3-fluoro-3-(5-(4-fluorophenyl)pyridin-2-yl)-1-(1H-tetrazol-1-yl)butan-2-ol], the “Candida MIC Rating” value is reported as “A (≤0.5)”.

For `CC(F)(c1ccc(-c2ccc(C(F)(F)F)cc2)cn1)C(O)(Cn1cnnn1)c1ccc(F)cc1F` (centres unmarked) [Example 52], the “Candida MIC Rating” value is listed as “C (>1.5 − 4)”.

In the case of `CC(F)(c1ccc(-c2ccc(C(F)(F)F)cc2)cn1)C(O)(Cn1cnnn1)c1ccc(F)cc1F` (centres unmarked) [Example 53], the “Candida MIC Rating” value is “B (>0.5 − 1.5)”.

Turning to `CC(F)(c1ccc(-c2ccc(Cl)cc2)cn1)C(O)(Cn1cnnn1)c1ccc(F)cc1F` (centres unmarked) [Example 54, 3-(5-(4-Chlorophenyl)pyridin-2-yl)-2-(2,4-difluorophenyl)-3-fluoro-1-(1H-tetrazol-1-yl)butan-2-ol], the “Candida MIC Rating” value is “C (>1.5 − 4)”.

Regarding `CC(F)(c1ccc(-c2ccc(Cl)cc2)cn1)C(O)(Cn1cnnn1)c1ccc(F)cc1F` (centres unmarked) [Example 55, 3-(5-(4-Chlorophenyl)pyridin-2-yl)-2-(2,4-difluorophenyl)-3-fluoro-1-(1H-tetrazol-1-yl)butan-2-ol], the “Candida MIC Rating” value is “A (≤0.5)”.

As to `CC(F)(c1ccc(-c2ccc(OCC(F)(F)F)cc2)cn1)C(O)(Cn1cnnn1)c1ccc(F)cc1F` (centres unmarked) [Example 56, 2-(2,4-Difluorophenyl)-3-fluoro-1-(1H-tetrazol-1-yl)-3-(5-(4-(2,2,2-trifluoroethoxy)phenyl)pyridin-2-yl)butan-2-ol], the “Candida MIC Rating” value is listed as “C (>1.5 − 4)”.

For `CC(F)(c1ccc(-c2ccc(OCC(F)(F)F)cc2)cn1)C(O)(Cn1cnnn1)c1ccc(F)cc1F` (centres unmarked) [Example 57, 2-(2,4-Difluorophenyl)-3-fluoro-1-(1H-tetrazol-1-yl)-3-(5-(4-(2,2,2-trifluoroethoxy)phenyl)pyridin-2-yl)butan-2-ol], the “Candida MIC Rating” value is given as “A (≤0.5)”.
